According to patent US7619086B2 (Merck & Co., Inc., priority 2004, dated 2009):

Legend:
[1] = target: T1, HIV integrase (recombinant integrase) (Human immunodeficiency virus type 1 group M subtype B, UniProt P04585); test: HIV integrase assay: strand transfer catalyzed by recombinant integrase; assay type: biochemical; settings: per WO 02/30930, read-out: IC50, inhibition of strand transfer activity of integrase
T1 construct: Assays for the strand transfer activity of integrase were conducted in accordance with WO 02/30930 for recombinant integrase
Experimental: Assays for the strand transfer activity of integrase were conducted in accordance with WO 02/30930 for recombinant integrase.
Further description on conducting the assay using preassembled complexes is found in Wolfe, A. L. et al., J. Virol. 1996, 70: 1424-1432, Hazuda et al., J. Virol. 1997, 71: 7005-7011; Hazuda et al., Drug Design and Discovery 1997, 15: 17-24; and Hazuda et al., Science 2000, 287: 646-650.

HIV = test: Assay for inhibition of HIV replication (acute HIV infection of T-lymphoid cells); assay type: cell-based; settings: Human immunodeficiency virus 1
Experimental: Assays for the inhibition of acute HIV infection of T-lymphoid cells were conducted in accordance with Vacca, J. P. et al., Proc. Natl. Acad. Sci. USA 1994, 91: 4096.

Row | Compound | IC50 [1] | IC95 (HIV)
1 | CN1C(=O)C(O)=C2C(=O)N(Cc3ccc(F)cc3)CCC2C1(C)C (stereo not drawn) [Example 2, 2-(4-Fluorobenzyl)-8-hydroxy-5,5,6-trimethyl-2,3,4,4a,5,6-hexahydro-2,6-naphthyridine-1,7-dione] | ≤ 1 µM | ≤ 10 µM
2 | CC1(C)C2CCN(Cc3ccc(F)cc3)C(=O)C2=C(O)C(=O)N1CC1CC1 (stereo not drawn) [Example 8, 6-(Cyclopropylmethyl)-2-(4-fluorobenzyl)-8-hydroxy-5,5-dimethyl-2,3,4,4a,5,6-hexahydro-2,6-naphthyridine-1,7-dione] | ≤ 1 µM | ≤ 10 µM
3 | CN1CC2(c3ccccc3)CCN(Cc3ccc(F)cc3)C(=O)C2=C(O)C1=O (stereo not drawn) [Example 3, 2-(4-Fluorobenzyl)-8-hydroxy-6-methyl-4-a-phenyl-2,3,4,4a,5,6-hexahydro-2,6-naphthyridine-1,7-dione] | ≤ 1 µM | ≤ 10 µM
4 | CC[C@@H]1[C@@H]2CCN(Cc3ccc(F)cc3)C(=O)C2=C(O)C(=O)N1C (relative stereo) [Example 6, (Cis-4a,5)-5-Ethyl-2-(4-fluorobenzyl)-8-hydroxy-6-methyl-2,3,4,4a,5,6-hexahydro-2,6-naphthyridine-1,7-dione] | ≤ 1 µM | ≤ 10 µM
5 | CN1C(=O)C(O)=C2C(=O)N(Cc3ccc(F)cc3)CCC2C12CCC2 (stereo not drawn) [Example 13] | ≤ 1 µM | ≤ 10 µM
6 | CN1C(=O)C(O)=C2C(=O)N(Cc3ccc(F)cc3)CCC2C1C(=O)NC(C)(C)C (stereo not drawn) [Example 15] | ≤ 1 µM | ≤ 10 µM
7 | CN1C(=O)C(O)=C2C(=O)N(Cc3ccc(F)cc3)CCC2C1c1ncccn1 (single isomer, unassigned) [first eluting enantiomer of Example 17, 5-(Pyrimidin-2-yl)-2-(4-fluorobenzyl)-8-hydroxy-6-methyl-2,3,4,4a,5,6-hexahydro-2,6-naphthyridine-1,7-dione] | ≤ 1 µM | ≤ 10 µM
8 | CN1C(=O)C(O)=C2C(=O)N(Cc3ccc(F)c(Cl)c3)CCC2C1(C)C (stereo not drawn) [Example 10] | ≤ 1 µM | ≤ 10 µM
9 | CN1C(=O)C(O)=C2C(=O)N(Cc3ccc(F)cc3)CCC2C12CCCC2 (stereo not drawn) [Example 11] | ≤ 1 µM | ≤ 10 µM
10 | CN1CC2CCN(Cc3ccc(F)cc3)C(=O)C2=C(O)C1=O (stereo not drawn) [Example 1, 2-(4-Fluorobenzyl)-8-hydroxy-6-methyl-2,3,4,4a,5,6-hexahydro-2,6-naphthyridine-1,7-dione] | ≤ 1 µM | ≤ 10 µM
11 | CN1C(=O)C(O)=C2C(=O)N(Cc3ccc(F)cc3)CCC2C1C(=O)NCc1ccccn1 (stereo not drawn) [Example 16] | ≤ 1 µM | ≤ 10 µM
12 | CN1C(=O)C(O)=C2C(=O)N(Cc3ccc(F)cc3)CCC2C1C(=O)OC(C)(C)C (single isomer, unassigned) [Example 4, 5-(tert-Butyloxycarbonyl)-2-(4-fluorobenzyl)-8-hydroxy-6-methyl-2,3,4,4a,5,6-hexahydro-2,6-naphthyridine-1,7-dione] | ≤ 1 µM | ≤ 10 µM
13 | CN(C)C(=O)C1C2CCN(Cc3ccc(F)cc3)C(=O)C2=C(O)C(=O)N1C (stereo not drawn) [Example 9, 5-(Dimethylaminocarbonyl)-2-(4-fluorobenzyl)-8-hydroxy-6-methyl-2,3,4,4a,5,6-hexahydro-2,6-naphthyridine-1,7-dione] | ≤ 1 µM | ≤ 10 µM
14 | O=C1C2=C(O)C(=O)N(C3CC3)CC2CCN1Cc1ccc(F)c(Cl)c1 (racemic) [Example 18, 2-(3-Chloro-4-fluorobenzyl)-8-hydroxy-6-cyclopropyl-2,3,4,4a,5,6-hexahydro-2,6-naphthyridine-1,7-dione] | ≤ 1 µM | ≤ 10 µM
15 | CN1C(=O)C(O)=C2C(=O)N(Cc3ccc(F)c(F)c3)CCC2C1(C)C (stereo not drawn) [Example 12] | ≤ 1 µM | ≤ 10 µM
16 | CC(C)CNC(=O)C1C2CCN(Cc3ccc(F)cc3)C(=O)C2=C(O)C(=O)N1C (stereo not drawn) [Example 14] | ≤ 1 µM | ≤ 10 µM
17 | CCC1NC(=O)C(O)=C2C(=O)N(Cc3ccc(F)cc3)CCC21 (stereo not drawn) [Example 5] | ≤ 1 µM | ≤ 10 µM
18 | CC[C@@H]1[C@H]2CCN(Cc3ccc(F)cc3)C(=O)C2=C(O)C(=O)N1C (relative stereo) [Example 7, (Trans-4a,5)-5-Ethyl-2-(4-fluorobenzyl)-8-hydroxy-6-methyl-2,3,4,4a,5,6-hexahydro-2,6-naphthyridine-1,7-dione] | ≤ 1 µM | ≤ 10 µM
